A word on the Ki: it is the dissociation constant of the complex between target and ligand, obtained from inhibition or displacement. Read a low Ki as higher affinity.

Experimental findings from ChEMBL document CHEMBL1139998, “Design, synthesis, and binding studies of bidentate Zn-chelating peptidic inhibitors of glyoxalase-I” (Bioorg Med Chem Lett, 2007) are described below.

The target of this experiment is T1, Glyoxalase I (Saccharomyces cerevisiae S288c, UniProt P50107).
T1 sequence (P50107 whole entry): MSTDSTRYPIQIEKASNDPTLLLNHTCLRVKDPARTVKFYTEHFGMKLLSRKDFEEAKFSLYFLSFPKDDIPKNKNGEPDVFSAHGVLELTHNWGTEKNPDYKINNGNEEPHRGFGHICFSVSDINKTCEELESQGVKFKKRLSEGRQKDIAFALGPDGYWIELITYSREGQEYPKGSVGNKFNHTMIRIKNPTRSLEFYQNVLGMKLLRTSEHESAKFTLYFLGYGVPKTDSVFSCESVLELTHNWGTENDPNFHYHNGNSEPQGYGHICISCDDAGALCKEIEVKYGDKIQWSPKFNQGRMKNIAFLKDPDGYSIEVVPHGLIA
In words: Inhibition of yeast glyoxalase 1.

`N[C@@H](CCC(=O)N[C@@H](CCC(=O)CC(=O)OCc1ccc(Br)cc1)C(=O)NCC(=O)O)C(=O)O` yielded a Ki of 66.9 µM.

Regarding `COC(=O)CC(=O)CC[C@H](NC(=O)CC[C@H](N)C(=O)O)C(=O)NCC(=O)O`, the affinity, expressed as Ki, was 112 µM.
